Counter-ions that a name gives are not always drawn. Like-named read-outs stand apart in the source and are kept apart here.

As usually defined, the Emax is the maximal effect, on the per cent scale that the assay sets. For orientation: IC50 means the concentration needed to halve the response being measured. The EC50 is the concentration at which the effect is half-maximal.

Series [1] concerns the target T1, human μ-subtype opioid receptor (hMOR) (Homo sapiens (Human), UniProt P35372). In words: MOR cAMP agonist activity test. In kind it is cell-based. The following applies: for Emax: maximum effect of enkephalin DAMGO was 100%. The method, then:
Test 1: MOR cAMP Agonist Activity Test
1.1 Experimental Purpose: To test the cAMP agonist activity of the compounds of the present disclosure on the human μ-subtype opioid receptor (hMOR).
a. Compound samples were dissolved in DMSO to a storage concentration of 10 mM.
(§1) b. A series of diluted samples were formulated on a 384-well LDV plate. A total of 11 concentration points were obtained by 3.162-fold gradient dilution.
c. The series of diluted samples were transferred to an experimental plate (Corning-3824) by using an Echo machine, wherein 30 nL was transferred corresponding to each well.
The experiment was performed using a cAMP detection kit from Cisbio (Cisbio #62AM4PEJ).
a. Assay buffer and stimulation buffer (STB) required for the experiment were formulated.
Stimulation Buffer: formulated with the assay buffer, containing 5 μM NKH477 (CAS: 138605-00-2) and 200 μM IBMX (3-isobutyl-1-methylxanthine)
b. […] The number of cells in the well was 10,000 cells/well.
c. The experimental plate was placed in a 37° C. constant-temperature incubator for incubation. The incubation was performed for 40 minutes.
d. A cAMP standard concentration curve was prepared. The first concentration point was at 2848 nM, and a total of sixteen detection concentrations were obtained by 4-fold gradient dilution. There were three replicates for each concentration point.
e. The cAMP detection kit from Cisbio was provided therein with a d2-labeled cAMP reagent (d2 reagent) and an Eu-labeled cAMP antibody reagent (Crypate reagent). The above two reagents were formulated according to the kit instructions, and then added to the sample experimental plate and to the cAMP standard concentration experimental plate, respectively. It was necessary to add 5 μL of the d2 reagent and then 5 μL of the Cryptate reagent to each well.
f. After the experimental plates were left at room temperature for 60 minutes, the experimental plates were read on the Envision.

Series [2] deals with T1, human μ-subtype opioid receptor (hMOR). In words: MOR β-arrestin-2 agonist activity test. The series is classed as cell-based. The settings on record: for Emax: maximum effect of enkephalin DAMGO was 100%, about 0% = no actual agonist activity. The method, then: Test 2: β-Arrestin-2 Agonist Activity Test
2.1 Experimental Purpose: To test the β-arrestin-2 agonist activity of the compounds of the present disclosure on the human μ-subtype opioid receptor (hMOR).
a. All samples were dissolved in DMSO to a storage concentration of 10 mM.
as §1
c. The series of diluted samples were transferred to an experimental plate by using an Echo machine, wherein 60 nL of the compound was transferred corresponding to each well.
d. 60 nL of 3.33 mM DAMGO (as HPE) and 60 nL of DMSO (as ZPE) were transferred to the corresponding positions on the experimental plate by using the Echo machine.
The experiment was performed using PathHunter Detection Kit from DiscoveRX Cooperation (DiscoveRX #93-0213C3)
a. Assay buffer and PathHunter detection reagent required for the experiment were formulated.
Assay Buffer: 1×DPBS buffer
PathHunter Detection Reagent: The kit was provided therein with three constituents.
c. The experimental plate was centrifuged at 300 rpm for 30 s and incubated at room temperature for 2 hours.
d. 6 μL of the PathHunter detection reagent was added to each well of the experimental plate.
e. The experimental plate was centrifuged at 300 rpm for 30 seconds, then left at room temperature for 60 minutes, and then read on the Envision.

In the next series the target is CYP2D6 (Homo sapiens (Human), UniProt P10635). The experiment in a line: Inhibition of cytochrome P450 isoenzymes, CYP2D6. In kind it is in vitro ADME. As for the experimental part:
4.1 Experimental Purpose: To test the inhibitory effects of the compounds of the present disclosure on different isoforms of human cytochrome P450 isoenzymes
1) The activities of CYP1A2, 2C9, 2C19, 2D6, and 3A4 were measured using a standard substrate method. In each reaction, the enzyme activities were measured in the presence and absence of the substance to be tested, wherein a single sample was measured at a total of eight test concentrations. A 5-in-1 mixed inhibitor was used.
2) An incubation matrix comprising microsomes, a substrate, and an inhibitor or the compound to be tested was pre-incubated at 37° C. for 5 minutes, and then NADPH was added to start the reaction.
3) After the incubation, acetonitrile with an internal standard was added to stop the reaction.
4) Metabolites generated by the substrates were measured by using the LC-MS/MS method, and the peak area ratio of each metabolite to the internal standard was evaluated and the inhibition rate and IC50 were calculated.

The next series addresses hERG potassium channels (Homo sapiens (Human), UniProt Q12809). The experiment in a line: Effects on hERG potassium channels (Qpatch, CHO-hERG cells). The series is classed as cell-based. The following applies: highest test concentration 40 μM, read-out: IC50 representing the blocking effects of hERG potassium currents. The method, then:
5.1 Experimental Purpose: To test the blocking effects of the compounds of the present disclosure on hERG potassium currents.
a. CHO-hERG cells were cultured in a 175 cm^2 culture flask. When the cells were grown to a density of 60 to 80%, the culture solution was removed, and the cells were washed once with 7 mL of PBS (phosphate buffer solution), and then 3 mL of a cell digestion solution (Detachin) was added for digestion of the cells.
b. After completely digested, the cells were neutralized by adding 7 mL of the culture solution and then centrifuged, the supernatant was removed, and then 5 mL of the culture solution was added for resuspension to ensure a cell density of 2 to 5×10^6 cells/mL.
The single-cell high-impedance sealing and whole-cell pattern formation processes were both carried out automatically by the Qpatch instrument. After the whole-cell recording pattern was obtained, the cells were clamped at −80 millivolts. A preceding voltage of −50 millivolts was applied for 50 milliseconds prior to application of a depolarizing stimulus of +40 millivolts for 5 seconds, and then the cells were repolarized to −50 millivolts and maintained for 5 seconds and then returned back to −80 millivolts. This voltage stimulation was applied every 15 seconds, and data were recorded for 2 minutes, and thereafter the extracellular fluid was administered and data were recorded for 5 minutes, and then the administration process was started. The compound was administered for 2.5 minutes at each test concentration from the lowest test concentration. After all the concentrations of the compound were administered, […] of Cisapride was administered as a positive comparative compound. At least three cells (n>3) were tested for each concentration.
a. A 20 mM compound mother solution was diluted with the extracellular fluid, wherein 5 μL of the 20 mM compound mother solution was taken and diluted 500 times to 40 μM by adding 2495 μL of the extracellular fluid thereto, and then 3-fold serial dilutions were performed sequentially in the extracellular fluid containing 0.2% DMSO to obtain a final concentration to be tested.
b. The highest test concentration was 40 μM, and there were six concentrations in total, i.e., 40, 13.33, 4.44, 1.48, 0.49, and 0.16 μM, respectively.
c. The DMSO content in the final test concentration was not more than 0.2%. This concentration of DMSO had no effect on the hERG potassium channel.
The experimental data were analyzed by XLFit software.
(Block of hERG is tested as a sign of cardiac risk.)

The conditions of series [3]: published Phase 2 clinical trial data; compared to morphine; cited from earlier work.
The mark [4] stands for this setting: >30000 nM = greater than the highest detection concentration, read-out: MOR β-arrestin-2 EC50.

Chain of hERG potassium channels (Q12809 whole entry): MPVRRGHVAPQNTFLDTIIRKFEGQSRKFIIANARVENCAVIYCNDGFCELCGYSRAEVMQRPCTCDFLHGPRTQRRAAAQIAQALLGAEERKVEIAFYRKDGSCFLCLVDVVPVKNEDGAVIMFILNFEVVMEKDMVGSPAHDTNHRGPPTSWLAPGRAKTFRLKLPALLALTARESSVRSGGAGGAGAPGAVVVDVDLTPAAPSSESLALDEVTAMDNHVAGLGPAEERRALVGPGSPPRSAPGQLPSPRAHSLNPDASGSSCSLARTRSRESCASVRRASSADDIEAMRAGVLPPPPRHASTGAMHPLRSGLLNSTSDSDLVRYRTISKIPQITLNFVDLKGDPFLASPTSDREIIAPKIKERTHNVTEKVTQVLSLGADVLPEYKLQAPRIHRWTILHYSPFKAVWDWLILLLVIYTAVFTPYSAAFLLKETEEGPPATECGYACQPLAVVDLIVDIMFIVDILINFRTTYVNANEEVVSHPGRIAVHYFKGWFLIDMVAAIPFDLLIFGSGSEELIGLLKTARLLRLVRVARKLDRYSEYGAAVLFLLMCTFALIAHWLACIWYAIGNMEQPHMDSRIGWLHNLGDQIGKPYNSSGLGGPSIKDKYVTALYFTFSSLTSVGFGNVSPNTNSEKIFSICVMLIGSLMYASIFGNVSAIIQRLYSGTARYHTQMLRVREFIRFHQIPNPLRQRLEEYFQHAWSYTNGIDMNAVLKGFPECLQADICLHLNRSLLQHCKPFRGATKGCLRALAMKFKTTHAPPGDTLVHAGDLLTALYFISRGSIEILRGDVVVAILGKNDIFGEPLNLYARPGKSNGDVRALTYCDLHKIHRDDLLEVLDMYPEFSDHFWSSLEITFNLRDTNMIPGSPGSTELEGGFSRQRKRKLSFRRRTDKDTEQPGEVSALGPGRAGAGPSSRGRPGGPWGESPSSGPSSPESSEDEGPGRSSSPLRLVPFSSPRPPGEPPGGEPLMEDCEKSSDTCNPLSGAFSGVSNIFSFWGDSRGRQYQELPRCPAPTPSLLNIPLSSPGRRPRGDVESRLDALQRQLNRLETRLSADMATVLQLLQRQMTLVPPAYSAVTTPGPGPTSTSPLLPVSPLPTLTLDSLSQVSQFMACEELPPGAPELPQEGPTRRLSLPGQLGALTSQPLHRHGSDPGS
Chain of CYP2D6 (P10635 whole entry, canonical isoform): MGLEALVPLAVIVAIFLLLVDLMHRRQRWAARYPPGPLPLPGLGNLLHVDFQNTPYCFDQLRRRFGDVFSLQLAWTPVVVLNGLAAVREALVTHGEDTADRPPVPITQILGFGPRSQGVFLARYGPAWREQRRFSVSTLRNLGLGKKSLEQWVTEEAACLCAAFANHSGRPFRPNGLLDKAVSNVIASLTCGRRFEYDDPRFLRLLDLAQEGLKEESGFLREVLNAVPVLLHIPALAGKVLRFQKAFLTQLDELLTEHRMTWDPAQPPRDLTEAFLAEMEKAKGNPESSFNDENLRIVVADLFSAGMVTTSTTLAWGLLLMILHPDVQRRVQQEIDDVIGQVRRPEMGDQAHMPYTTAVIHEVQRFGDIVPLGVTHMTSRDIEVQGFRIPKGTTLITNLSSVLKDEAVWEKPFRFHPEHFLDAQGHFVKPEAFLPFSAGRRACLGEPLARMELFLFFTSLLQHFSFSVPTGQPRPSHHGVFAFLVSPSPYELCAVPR

Regarding `COc1ccsc1CNCC[C@@]1(c2ccccn2)CCOC2(CCCC2)C1` [compound 1, Oliceridine, reference compound], the maximal effect (Emax) in series [1] worked out at 82.7%; in series [2] it was 4.5%. Also, the half-maximal inhibitory concentration (IC50) on CYP2D6 stood at 4.6 µM; on hERG potassium channels it was 5.5 µM. Further, in series [3], the “side effects, Phase 2 clinical trial (in words)” value is listed as “significant reduction in side effects compared to morphine”.
As for `c1ccc([C@]2(CCNCc3scc4c3CCC4)CCO[C@]3(CCOC3)C2)nc1` [(+)-2], the values for the Emax in series [1] and in series [2] were 96% and around 0%, respectively. Also, the EC50 in series [2] (setting [4]) was above 30 µM. Besides, the IC50 was 46.4 µM at CYP2D6 (read-out: CYP 2D6 IC50) and above 40 µM at hERG potassium channels.
Turning to `Fc1ccc([C@]2(CCNCc3cccc(F)c3)CCO[C@]3(CCOC3)C2)nc1` [Hydrochloride Salt of (+)-23], the EC50 in series [1] was 0.001 µM; in series [2] (setting [4]) it was above 30 µM. For the same compound, the Emax in series [1] is 84.5%; in series [2] it was around 0%. Besides, the IC50 on CYP2D6 (read-out: CYP 2D6 IC50) was determined as 17.8 µM.
Consider `Cc1cccc(CNCC[C@@]2(c3ccc(F)cn3)CCO[C@]3(CCOC3)C2)c1` [Hydrochloride Salt of (+)-22], for which the Emax in series [1] was 93.3%; in series [2], around 0%. In series [2], this compound yielded an EC50 above 30 µM. Further, the results for the IC50 against CYP2D6 and on hERG potassium channels were 19.3 µM and 18.8 µM, respectively.
Regarding `Fc1ccc([C@]2(CCNCc3cccc(Cl)c3)CCO[C@]3(CCOC3)C2)nc1` [(+)-16], the EC50 is 0.0005 µM in series [1] and above 30 µM in series [2] (setting [4]). Moreover, the results for the Emax in series [1] and in series [2] were 91.7% and around 0%, respectively. For the same compound, the IC50 at CYP2D6 (read-out: CYP 2D6 IC50) is 12.7 µM.

The values are drawn from patent publication US11124523B2, “2,6-dioxaspiro [4,5] decane derivatives and preparation method therefor and pharmaceutical applications thereof” (SHANDONG LUYE PHARMACEUTICAL CO., LTD., priority 2017, dated 2021).
